Reference: patent publication US20240254134A1, “AGELASTATIN A DERIVATIVES AND RELATED METHODS” (ROMO, Daniel, priority 2021, published 2024)
Read-outs that look alike come from different tables or passages of the source. Each block holds one compound with its values, some of them ahead of it.

Tests used:
[1] = Stability studies of pyrrole-derived carbinolamines 18a-18c (1H NMR); format: physicochemical; details: in CD3OD
Protocol: We synthesized pyrrole carboxylic amides 17a-c to study the equilibrium between the corresponding carbinolamines and pyrrolo ketones (FIG. 5). Reduction of 2-azidocyclopentanone and condensation with pyrrole-1H-carboxylic acid gave amide 17b. Upon treatment of ketone 17b with Et3N, cyclization gave the corresponding carbinolamine 18b in 73% yield (>19:1 dr, 600 MHz ^1H NMR). […] When resubjected to NEt3/CH2Cl2 at ambient temperature (22° C.) for 16 h, only a small amount of the ring-opened keto pyrrole 17b was generated leading to an equilibrium ratio of 11:1 (18b/17b) favoring the cyclized form as judged by ^1H NMR. […] In contrast, the 5-bromo pyrrole analog 17a, that most closely mimics the targeted 7-hydroxy AglA, disfavored the closed form 18a.
To a stirred solution of carbinolamine 18b (3.0 mg, 0.016 mmol, 1.0 equiv) in dichloromethane (0.32 mL) was added triethylamine (6.6 μl, 0.047 mmol, 3.0 equiv).
To a stirred solution of carbinolamine 18c (1.2 mg, 0.0044 mmol, 1.0 equiv) was added a solution of triethylamine in dichloromethane (0.1 mL, the solution was made by mixing 19 μl triethylamine and 1.0 mL dichloromethane).
To a 1.0 dram vial was charged 17a (2.7 mg, 0.01 mmol, 1.0 equiv) and a solution of triethylamine in dichloromethane (0.23 mL, […], 3.0 equiv. The solution was made by mixing 19 μl triethylamine and 1.0 mL dichloromethane).
In a 1.5 dram vial, carbinolamine 18b (2.6 mg, 0.014 mmol, 1.0 equiv) was dissolved in THF (0.14 mL) and MeOH (0.14 mL) and the mixture was cooled to 0° C. N-bromosuccinamide (2.5 mg, 0.0142 mmol, 1.05 equiv) was added and the reaction was allowed to warm up to ambient temperature (22° C.). After stirring for 4 h, TLC indicated there was no more starting material and the reaction mixture was concentrated and purified by column chromatography on silica (MeOH/CH2Cl2, 0 to 20%) to give a mixture of 18a/18c/17a (2.4 mg, 65%) in 1:0.6:0.44 ratio. This mixture was monitored by NMR to probe the stability of the 5-bromo derivative in CD3OD. […]

[2] = test system: Cancer cell lines (MDA-MB-231, MCF7, Caco2, or U87); experiment: Cancer cell line cytotoxicity, span over all cell lines studied; format: cell-based; details: Homo sapiens; all cell lines studied except Caco-2; read-out: activity against all cell lines studied (span of values)
Protocol: (§1) Cancer Cell Line Cytotoxicity Assays Cancer cell lines (MDA-MB-231, MCF7, Caco2, or U87) were plated on 96-well plates at 2,000 cells per well and incubated for 24 h at 37° C., 5% CO2. AglA and derivatives were dissolved in DMSO, diluted to the appropriate concentrations, and the compound solutions or equivalent concentration of solvent (vehicle) were added to the plate and incubated for 72 h at 37° C., 5% CO2. Following the manufacturer protocol, 20 μL of CellTiter 96® AQueous One Solution Cell Proliferation Assay (MTS, Promega), or CellTiter-Blue@ Cell Viability Assay (resazurin, Promega) was added. The plate was allowed to develop for 1-4 h at 37° C., 5% CO2 and evaluated at 490 nm on an AccuSkan Go (Fisher Scientific) or at 560 nm excitation and 590 nm emission on a VarioSkan Lux Multimode Microplate Reader (Fisher Scientific).

[3] = test system: HeLa cells; details: cited from earlier work
[4] = Stability of 7-hydroxy AglA derivatives (1H NMR); format: physicochemical
[5] = test system: peptidyl transfer center (PTC) of the ribosome; details: HeLa cells; cited from earlier work
[6] = test system: glycogen synthase kinase-3β; details: cited from earlier work
[7] = target: osteopontin (OPN, encoded by SPP1) (Homo sapiens, UniProt P10451); details: cited from earlier work
[8] = Cancer cell line cytotoxicity assay (MTS or resazurin, 72 h); format: cell-based; details: human
Protocol: as §1

[9] = test system: U87; experiment: as above; format: cell-based; details: glioblastoma cell line U87, 72 h incubation
Protocol: as §1

[10] = test system: MDA-MB-231; experiment: as above; format: cell-based; details: MDA-MB-231, 72 h incubation
Protocol: as §1

[11] = test system: Caco2; experiment: as above; format: cell-based; details: Caco2, 72 h incubation
Protocol: as §1

[12] = test system: MCF7; experiment: as above; format: cell-based; details: MCF7, 72 h incubation
Protocol: as §1

Chain of glycogen synthase kinase-3β (P49841 whole entry): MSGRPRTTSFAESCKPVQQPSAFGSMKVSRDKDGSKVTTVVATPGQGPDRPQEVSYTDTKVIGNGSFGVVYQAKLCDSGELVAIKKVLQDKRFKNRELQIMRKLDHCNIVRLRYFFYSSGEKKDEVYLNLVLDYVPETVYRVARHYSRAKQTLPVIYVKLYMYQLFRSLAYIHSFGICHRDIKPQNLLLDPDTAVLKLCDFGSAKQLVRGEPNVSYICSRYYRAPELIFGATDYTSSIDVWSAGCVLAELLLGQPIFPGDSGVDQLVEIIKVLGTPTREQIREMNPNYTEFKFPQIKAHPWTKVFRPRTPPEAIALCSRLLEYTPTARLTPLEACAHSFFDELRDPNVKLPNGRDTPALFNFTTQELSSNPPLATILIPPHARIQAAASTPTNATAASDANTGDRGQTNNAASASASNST
Chain of osteopontin (OPN, encoded by SPP1) (P10451 17-314, species assumed): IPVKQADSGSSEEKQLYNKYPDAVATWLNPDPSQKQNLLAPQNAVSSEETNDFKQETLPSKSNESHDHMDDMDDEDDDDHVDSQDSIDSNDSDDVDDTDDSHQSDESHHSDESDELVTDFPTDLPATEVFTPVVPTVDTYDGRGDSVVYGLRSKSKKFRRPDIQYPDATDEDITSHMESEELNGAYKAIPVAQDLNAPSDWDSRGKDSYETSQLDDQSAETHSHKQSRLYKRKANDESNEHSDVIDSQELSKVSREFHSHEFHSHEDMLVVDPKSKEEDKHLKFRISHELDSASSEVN

- stability of carbinolamine under neutral conditions [1]: opened rapidly in CD3OD
Compound: O=C1NC2CCCC2(O)n2c(Br)ccc21 (stereo not shown) [18a]

- stability of carbinolamine under neutral conditions [1]: stable under neutral conditions
Compound: O=C1NC2CCCC2(O)n2cc(Br)cc21 (stereo not shown) [18c]

- stability of carbinolamine under neutral conditions [1]: stable in CD3OD for several days
Compound: O=C1NC2CCCC2(O)n2cccc21 (stereo not shown) [18b]

More lines, now with the values behind:

Compound: CN1C(=O)N[C@H]2[C@@H]3NC(=O)c4ccc([N+](=O)[O-])n4[C@@H]3C[C@]21O [compound 37, 13-nitro AglA]
- EC50 [2]: 1.16 to 35.4 µM

Compound: 13-des-bromo AglA
- drop in potency compared to AglA [3]: ~500 X

Compound: 7-hydroxy AglA [7-OH AglA]
- stability (ring-closed carbinolamine vs ring opened ketopyrrole tautomer) [4]: instability
- stability (ring-closed carbinolamine vs ring opened ketopyrrole tautomer) ([4]; listed as 7-hydroxy AglA): unstable

Compound: Agelastatin A [AglA]
- binding to the peptidyl transfer center of the ribosome [5]: binds to the peptidyl transfer center (PTC) of the ribosome
- inhibition of expression of glycogen synthase kinase-3β [6]: inhibits the expression
- inhibition of osteopontin [7]: inhibition of osteopontin

Compound: CN1C(=O)N[C@H]2[C@@H]3NC(=O)c4cccn4[C@]3(O)C[C@]21O (racemic) [compound 24, 7-hydroxy-13-des-bromo AglA]
- stability by 1H NMR ([4]; stored in CD3OD or DMSO-d6 at ambient temperature (22° C.) for 7 days): quite stable
- EC50 at 72 h ([8]; Caco2 cells, Caco2, 72 h incubation): > 250 µM
- EC50 at 72 h ([8]; MCF7 cells, MCF7, 72 h incubation): > 250 µM
- EC50 at 72 h ([8]; MDA-MB-231 cells, MDA-MB-231, 72 h incubation): > 250 µM
- EC50 at 72 h ([8]; U87 glioblastoma cells, glioblastoma cell line U87, 72 h incubation): 171 ± 8 µM

Compound: CO[C@@]12C[C@H]3OC(c4ccc(Br)[nH]4)=N[C@H]3[C@@H]1NC(=O)N2C [26a]
- cytotoxicity EC50 [9]: no activity
- cytotoxicity EC50 [10]: no activity
- cytotoxicity EC50 [11]: no activity
- cytotoxicity EC50 [12]: no activity
